# Like-named read-outs stand apart in the source and are kept apart here.
# Tests used:
# [1] = system: BEAS2B and MCF10A normal epithelial cell lines; test: MTT cell viability / IC50, normal epithelial control cell lines
# Method: (§1) Liver cancer cell lines (HepG2, Hep3B) were inoculated into 96-well plates at a density of 3000 cells/well, and then 50 μl of culture solution was added thereto. Cells were cultured at 37° C. and 5% CO2 for 1 h. […] Cells were cultured at 37° C. and 5% CO2 for 24, 48, 72, and 96 h. After completion of the culture, the remaining culture solution was removed from the well plates, the cultures were diluted with MTT solution (3-(4,5-dimethylthiazol-2-yl)-2,5-diphenyltetrazole bromide) to a final density of 500 μg/ml, and cells were cultured at 37° C. and 5% CO2 for 3 h. The remaining MTT solution was removed and 150 μl of dimethyl sulfoxide (DMSO) was added. The reaction was carried out at room temperature for 20 min. After completion of the reaction, absorbance was measured using a microplate reader.
# MCF10A cell line = test: Electron microscopy of cell morphology, MCF10A; details: 2 μM, 24 and 48 h
# Method: 1.5×10^6 cells of MDA-MB-231 cell line and 5×10^5 cells of MCF10A cell line were inoculated into 100 mm dishes. […] After culture for 24 and 48 h, cells were collected. The culture solution was centrifuged and surface adherent cells were collected by trypsin treatment. The collected cells were washed once with physiological saline. The cell sediment was directly treated twice with 2.5% aqueous glutaraldehyde solution (each for 10 min). Samples for electron microscopy were prepared and imaged in accordance with general methods.
# [2] = system: normal cell lines (MCF10A, BEAS2B, hMSCs, mouse primary T cells); test: Microscopic observation of growth inhibition and apoptosis, normal cell lines; details: 2 μM, 48 h
# Method: (§2) Liver cancer cell lines (HepG2, Hep3B), a human embryonic kidney cell line (293T), breast cancer cell lines (MCF-7, MDA-MB-231), blood tumor cell lines (K562, HEL, HL60), glioblastoma cell lines (U251, U373MG, U87MG), a mammary epithelial cell line (MCF10A), a lung epithelial cell line (BEAS2B), human mesenchymal stem cells (hMSCs), and mouse primary T cells (resting and activated T cells) were inoculated into 96-well plates at a density of 3,000 cells/well, supplemented with 50 μl of culture solution, and cultured at 37° C. and 5% CO2 for 1 h. […] After completion of the culture, cells were observed under an inverted phase contrast microscope and their morphological changes were imaged.
# [3] = system: human mesenchymal stem cells (hMSC); test: MTT cell viability, human mesenchymal stem cells; details: increasing concentrations
# [4] = system: human embryonic stem cells (hESCs, H9); test: MTT cell viability, human embryonic stem cells co-cultured with MEFs; details: increasing concentrations; co-culture with MEFs
# Description: MEF cells labeled with rhodamine were often used to distinguish them from hESC-derived cells.
# [5] = system: cancer cell lines (HepG2, Hep3B, 293T, MCF-7, MDA-MB-231, K562, HEL, HL60, U251, U373MG, U87MG); test: Microscopic observation of growth inhibition and apoptosis, cancer cell lines; format: cell-based, human; details: 2 μM, 48 h
# Method: as §2
# CP2c [6] = target: T1, CP2c (Mus musculus, UniProt Q9ERA0); test: DNA immunoprecipitation (DIP) assay of CP2c-DNA binding; details: 0.2, 0.5, and 1 μg peptide; MEL nuclear extract; α-globin promoter probe
# T1 construct: 5 μg of the nuclear extract and an [α-32p] dCTP-labeled DNA probe; endogenous in cells; host or cells: MEL (murine erythroid leukemia) cells, HMBA-differentiated, nuclear extract
# T1 sequence (Q9ERA0 1-502): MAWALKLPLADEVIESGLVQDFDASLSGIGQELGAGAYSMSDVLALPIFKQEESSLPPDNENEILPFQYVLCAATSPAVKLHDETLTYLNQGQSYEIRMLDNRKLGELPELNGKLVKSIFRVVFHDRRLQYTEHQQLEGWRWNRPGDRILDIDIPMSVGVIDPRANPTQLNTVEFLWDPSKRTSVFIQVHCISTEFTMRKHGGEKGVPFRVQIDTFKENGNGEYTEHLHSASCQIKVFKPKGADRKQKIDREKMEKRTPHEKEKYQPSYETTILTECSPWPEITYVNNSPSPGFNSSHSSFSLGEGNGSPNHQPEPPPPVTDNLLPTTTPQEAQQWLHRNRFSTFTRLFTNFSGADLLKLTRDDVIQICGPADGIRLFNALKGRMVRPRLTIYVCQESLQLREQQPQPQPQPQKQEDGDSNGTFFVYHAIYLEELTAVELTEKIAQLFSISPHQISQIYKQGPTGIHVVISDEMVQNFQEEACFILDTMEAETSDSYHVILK
# Method: To analyze whether the five peptides identified in Example 1.1 bind to CP2c in cells to affect the ability of CP2c to bind to DNA, DNA immunoprecipitation (DIP) assay was performed as disclosed in another preceding research conducted by the present inventors (Kim et al., A DNA immunoprecipitation assay used in quantitative detection of in vitro DNA-protein complex binding, Analytical Biochemistry. 2013; 441: 147-151).
# In summary, the differentiation of a murine erythroid leukemia (MEL) cell line was induced by treatment with 5 mM hexamethylene bisacetamide (HMBA) and, on day 2 after differentiation, a cellular nuclear extract was separated. […]
# Subsequently, 5 μg of the nuclear extract and an [α-32p] dCTP-labeled DNA probe (a sequence corresponding to the common CP2c binding site present in mouse α-globin promoter and between −156 and −124 in the start codon of the α-globin gene, see the paper of Kim et al. for details of the sequence) were allowed to react with a binding buffer (4% glycerol, 10 mM Tris-HCl, 1 mM DTT, 1 mM EDTA, and 0.1% NP-40) for 15 min, and gradually increasing amounts (0.2, 0.5, and 1 μg) of the identified CP2c binding peptides (Peptide 5, Peptide 8, Peptide 13, Peptide 21, and Peptide 31) were added thereto. […] The CP2c protein was removed from the DNA probe and the remaining amount of the DNA probe was measured using a scintillation counter. […]
# CP2c [7] = test: Direct ELISA of GST-fusion mutant CP2c proteins binding to peptide; details: 19 Ala mutants of CP2c 306-396 region; detected with biotin-tagged Peptide 5-2CB
# Description: To support this assumption, a CP2c protein region with which Peptide 5-2C interacts and amino acids in the region directly binding to Peptide 5-2C need to be identified. Thus, an attempt was made to obtain mutant CP2c proteins in which polar amino acids present in the CP2c region binding with Peptide 5 shown in FIG. 1 were substituted with Ala and analyze the binding of the mutant CP2c proteins with Peptide 5-2C by enzyme-linked immunosorbent assay (ELISA). To facilitate this analysis, Peptide 5-2CB was synthesized in which biotin tag is bonded to the C-terminal Pro residue of Peptide 5-2C. To confirm whether Peptide 5-2CB induces cancer cell-specific growth interruption and apoptosis, like Peptide 5-2C, MTT assay was conducted on two different batches of Peptide 5-2CB in MDA-MB-231 cell line and MCF7 cell line by the same method as in Example 5.1. IC50 values were also calculated from the results of MTT assay. To obtain 19 mutant CP2c proteins in which polar amino acids present in the CP2c region binding with Peptide 5-2C were substituted with Ala, oligonucleotides having sequences encoding the corresponding mutant amino acids were synthesized and site-directed mutagenesis was carried out. The base sequences encoding the mutant CP2c genes were cloned into the pGEX4 vector and mutant GST-fusion CP2c proteins were purified using beads bound with antibody against GST-tag. […]
# MDA-MB-231 cell line = test: MTT assay of FITC-conjugated peptides in MDA-MB-231; format: cell-based, human; details: 0, 0.5, 1, 2, 3, 10 μM, 96 h
# [8] = system: human blood cancer cell lines (U937, Jurkat, HL60, HEL); test: MTT cell viability with Peptide 5-2D, human blood cancer cell lines; format: cell-based; details: increasing concentrations
# Method: as §1
# [9] = system: breast cancer cell lines (MCF7, MDA-MB-231); test: MTT cell viability, breast cancer cell lines; format: cell-based, human; details: increasing concentrations
# Method: as §1
# [10] = system: glioblastoma cell lines (U343, U87MG); test: MTT cell viability with Peptide 5-2D, glioblastoma cell lines; format: cell-based, human; details: increasing concentrations
# Method: as §1
# [11] = system: BEAS2B and MCF10A normal epithelial cell lines
# Method: as §1
# [12] = system: 293T and HepG2 cell lines; test: MTT cell viability with Peptide 5-2D, 293T and HepG2; format: cell-based, human; details: increasing concentrations
# Method: as §1
# [13] = system: colon cancer cell lines (HCT116, HT29); test: MTT cell viability with Peptide 5-2D, colon cancer cell lines; format: cell-based, human; details: increasing concentrations
# Method: as §1
compound,measurement,setting,value
"CCOc1ccccc1C1CC(=O)Nc2cc3c(cc21)OCO3 (centres unmarked) [FQI1, Factor Quinolinone Inhibitor 1]",growth inhibition and apoptosis induction of normal control cell lines (IC50 calculation),"[1]; 48 h, MTT",inhibited cell growth and induced apoptosis
same,cytotoxicity (MTT) in MCF10A and BEAS2B,[1]; increasing concentrations up to 10 μM,concentration-dependent cytotoxicity
same,intracellular structural abnormalities in MCF10A (electron microscopy),MCF10A cell line,considerable nuclear disruption was observed at 48 h
same,effect on normal cell lines (microscopy),[2],inhibited the growth of the normal cell lines
same,cytotoxicity (MTT) in hMSC,[3],concentration-dependent cytotoxicity
same,cytotoxicity (MTT) in hESCs,[4],concentration-dependent cytotoxicity
same,growth inhibition and apoptosis induction of cancer cell lines (microscopy),[5],inhibited the growth of the normal cell lines as well as the cancer cell lines in a concentration-dependent manner and induced apoptosis
NYPQRP [Peptide 5-2],inhibition of CP2c-DNA binding (DIP assay),CP2c [6],specifically inhibited the binding between CP2c and DNA
same,CP2c amino acids important for peptide binding,CP2c [7],"E332, R339, R341 and R347 amino acid are important for binding to Peptide 5-2"
FITC-iRGD: FITC fluorescently labeled iRGD peptide (CRGDKGPDC),cell growth (MTT) in MDA-MB-231,MDA-MB-231 cell line,only the FITC-conjugated Peptide 5-2C inhibited cell growth
dNP2 peptide sequence (KIKKVKKKGRKGSKIKKVKKKGRKGG) linked to the N-terminal Asn residue of Peptide 5-2 [Peptide 5-2D],"relative viability (MTT), U937, Jurkat, HL60, HEL, compared with Peptide 5-2C",[8],"inhibited the growth of the human embryonic kidney cancer cell line and the liver cancer cell line and efficiently induced apoptosis, similarly to Peptide 5-2C"
same,"relative viability (MTT), breast cancer cell lines, compared with Peptide 5-2C",[9],"inhibited the growth of the breast cancer cell lines and efficiently induced apoptosis, similarly to Peptide 5-2C"
same,"relative viability (MTT), U343 and U87MG, compared with Peptide 5-2C",[10],"inhibited the growth of the glioblastoma cell lines and efficiently induced apoptosis, similarly to Peptide 5-2C"
same,growth inhibition and apoptosis induction of normal control cell lines (IC50 calculation),[11],did not substantially affect the growth inhibition of the normal control cell lines and the induction of apoptosis
same,"relative viability (MTT), MCF10A and BEAS2B, compared with Peptide 5-2C",[11],"did not affect the growth of the mammary epithelial cell line and the lung epithelial cell line and apoptosis, similarly to Peptide 5-2C"
same,"relative viability (MTT), 293T and HepG2, compared with Peptide 5-2C",[12],"inhibited the growth of the human embryonic kidney cancer cell line and liver cancer cell line and efficiently induced apoptosis, similarly to Peptide 5-2C"
same,"relative viability (MTT), HCT116 and HT29, compared with Peptide 5-2C",[13],"inhibited the growth of the glioblastoma cell lines and efficiently induced apoptosis, similarly to Peptide 5-2C"

# From patent US10611797B2, “Peptide having anticancer activity, and pharmaceutical composition and dietary supplement composition for preventing and treating cancer, both of which contain same as active ingredient” (IUCF-HYU (INDUSTRY-UNIVERSITY COOPERATION FOUNDATION …, priority 2015, dated 2020)
